Earlier results as cited in publication PMC11599114 (Viruses, 2024).

Test system: influenza A virus(oseltamivir-resistant strain)
Parameters: method as in ref 30447229
Details: MDCK

Q: Which EC50 does the source give for KFFRKKSVKK [DRAVPe01822] here?
A: 18.9 ± 7 µM
